pIC50: −log10 of the molar value. Where “and” joins values, the source holds several entries; their conditions need not be identical. Identical values can stand only once. Entries after “also recorded” stand apart in the source; their conditions may differ.
How the values were obtained:
[1] = test system: AOM-treated rat model of colon carcinogenesis; details: in vivo; cited from earlier work
COX (cyclooxygenase) = details: cited from earlier work
[2] = test system: Caco-2 parental cells, Ki-ras clone #60 and Ki-ras clone #66; experiment: Viable cell number (trypan blue dye exclusion), growth of Caco-2 parental and Ki-ras transfected cells; type: cell-based, human
Ki-ras clone #66 = experiment: Induction of apoptosis (light microscopy) in Ki-ras clone 66; details: 120 μM sulindac sulfide; printed 'clone 6'
Caco-2 parental cells = experiment: Induction of apoptosis (light microscopy) in Caco-2 parental cells; type: cell-based, human; details: 120 μM sulindac sulfide; Caco-2 parental
Protocol: (§1) FIG. 3. […] Apoptosis was determined by light microscopy.
(§2) FIG. 8. […] Cells were grown over a period of 6 days. Cells were harvested at various days (0, 2, 4 and 6 days), spun onto slides and stained. Apoptosis was determined by light microscopy. Percentage of apoptotic cells was calculated as the number of apoptotic cells out of the total cells counted times 100. At least 500 cells were counted for each sample.
(§3) Cells were grown over a period of 6 days. Cells were harvested at various days (0, 2, 4 and 6 days), spun onto slides and stained. Apoptosis was determined by light microscopy. Percentage of apoptotic cells was calculated as the number of apoptotic cells out of the total cells counted times 100.

rat enterocytes = details: cited from earlier work
[3] = test system: Ki-ras transfected Caco-2 cells; experiment: Induction of apoptosis in Ki-ras transfected versus parental Caco-2 cells; type: cell-based, human; details: 120 μM sulfide, 600 μM sulfone
Protocol: as §1

Ki-ras clone #60 = experiment: Induction of apoptosis (light microscopy) in Ki-ras clone 60; type: cell-based, human; details: 120 μM sulindac sulfide
Protocol: as §1, §2, §3

[4] = human, in vivo, po; cited from earlier work
[5] = test system: Caco-2 and clone 60 cells; experiment: Clonogenic assay (colony-forming efficiency), Caco-2 and clone 60 cells; type: cell-based, human
[6] = test system: carcinogenesis in rodent/animal models; details: in vivo; cited from earlier work
[7] = test system: prostaglandin E2 (PGE2) levels in flat mucosa; experiment: Ibuprofen one month trial, PGE2 levels in flat mucosa; details: 300 mg/day
[8] = in vivo; cited from earlier work
colon cancer incidence = details: cited from earlier work
[9] = test system: colon mucosal prostaglandins; details: cited from earlier work
[10] = cited from earlier work
[11] = test system: tumors harboring Ki-ras mutations in AOM-treated rats; details: cited from earlier work

## COc1ccc2c(c1)c(CC(=O)O)c(C)n2C(=O)c1ccc(Cl)cc1 [indomethacin]
[1]
  inhibition of colon carcinogenesis in AOM-treated rat model: effectively inhibit colon carcinogenesis
COX (cyclooxygenase)
  COX / prostaglandin synthesis inhibition: prostaglandin synthase inhibitor

## CSc1ccc(/C=C2/C(C)=C(CC(=O)O)c3cc(F)ccc32)cc1 [sulindac sulfide]
[2]; 120 μM sulindac sulfide or 600 μM sulindac sulfone
  Ki-ras selective toxicity / Ki-ras-specific effect on growth: nor did sulindac sulfide or sulfone exert a Ki-ras-specific effect on growth
[2]; 120 μM sulindac sulfide, 10-day growth
  number of viable cells: remained relatively unchanged throughout the 10-day growth period
Ki-ras clone #66
  time of peak apoptosis: 6 days
Caco-2 parental cells
  time of peak apoptosis: 8 days
Rat enterocytes
  resistance to apoptosis on Ki-ras activation: confers resistance to apoptosis
[3]
  onset of apoptosis in Ki-ras transfected cells compared with parental cells: accelerate the onset of apoptosis; also recorded: occurred several days earlier in Ki-ras transfected cells than in parental cells
Ki-ras clone #60
  time of peak apoptosis: 4 days
[4]
  mean half-life: 16.4 h
[5]; 5 mM DFMO, increasing concentrations of sulindac sulfide
  survival normalized to like DFMO-treated controls: the survival rates of the DFMO-treated cells mirrored those of the non-DFMO-treated cells
[5]; Homo sapiens, Caco-2, 24 h, read-out: 50% decrease in cell number
  pIC50: ~3.65
[5]; increasing concentrations, 24 h
  effect of Ki-ras activation on viability / colony-forming efficiency after sulindac metabolite: did not reveal any differences in colony-forming efficiency between Ki-ras transfectants and parental Caco-2 cells

## CC(C)Cc1ccc(C(C)C(=O)O)cc1 (centres unmarked) [ibuprofen]
[1]
  inhibition of colon carcinogenesis in AOM-treated rat model: effectively inhibit colon carcinogenesis
[6]
  chemoprevention / inhibition of tumor development in animal models: less effective than other NSAIDs
[7]
  PGE2 levels in flat mucosa: significant decrease

## Cc1ncc([N+](=O)[O-])n1CCO [metronidazole]
[8]
  disulfiram-like reaction with alcohol ingestion: 20%
  rash: 5%

## CC1(C)S[C@@H]2[C@H](NC(=O)[C@H](N)c3ccc(O)cc3)C(=O)N2[C@H]1C(=O)O [amoxicillin]
[8]
  adverse effects: diarrhea and super-infections

## COc1ccc2[nH]c([S+]([O-])Cc3ncc(C)c(OC)c3C)nc2c1 (centres unmarked) [omeprazole]
[8]
  dizziness: 2%

## Cc1c(OCC(F)(F)F)ccnc1C[S+]([O-])c1nc2ccccc2[nH]1 (centres unmarked) [lansoprazole]
[8]
  diarrhea: 8%
  headache: 5%
  nausea: 3%

## CC(=O)Oc1ccccc1C(=O)O [aspirin]
[1]
  inhibition of colon carcinogenesis in AOM-treated rat model: effectively inhibit colon carcinogenesis
COX (cyclooxygenase)
  COX / prostaglandin synthesis inhibition: inhibitor of cyclooxygenase
Colon cancer incidence; in vivo
  beneficial effect, three large cohort studies: conflicting reports on the beneficial effect
Colon cancer incidence; weekly total dose
  weekly total dose with evident effect on colon cancer incidence: ≥ 1000 mg
[9]; in vivo
  lowest dose decreasing PGF2α in colon mucosa: 40 mg
  threshold dose of effect on colon mucosa: 81 mg and 80 mg
[9]; low doses, another group of investigators
  effect on colon mucosal prostaglandins: no such effect on colon mucosal prostaglandins
[9]; low doses
  upper gastrointestinal mucosa prostaglandins: substantial reduction of prostaglandins; also recorded: substantial education of prostaglandins

## CN1C(C(=O)Nc2ccccn2)=C(O)c2ccccc2S1(=O)=O [piroxicam, 4-Hydroxy-2-methyl-N-2-pyridyl-2H1,2-benzothiazine-3-carboxamide 1,1-dioxide]
[1]
  inhibition of colon carcinogenesis in AOM-treated rat model: effectively inhibit colon carcinogenesis
[10]; IIb trial / meta-analysis
  side effects: has more side effects than other NSAIDs
[10]; human, in vivo
  half-life: long half-life
  most frequently reported side effects: Gastrointestinal complaints
[6]
  chemoprevention / inhibition of tumor development in animal models: the most effective chemoprevention agent in animal models
[11]
  Ki-ras mutation / tumors harboring an activated Ki-ras: reduced Ki-ras mutation frequencies
  amount of biochemically active p21 ras in existing tumors: reduced the amount of biochemically active p21 ras in existing tumors
[11]; reduced from 90%
  tumors harboring Ki-ras mutations: 25%

## CC[C@H]1OC(=O)[C@H](C)[C@@H](O[C@H]2C[C@@](C)(OC)[C@@H](O)[C@H](C)O2)[C@H](C)[C@@H](O[C@@H]2O[C@H](C)C[C@H](N(C)C)[C@H]2O)[C@](C)(OC)C[C@@H](C)C(=O)[C@H](C)[C@@H](O)[C@]1(C)O [clarithromycin]
[8]
  diarrhea: 10%
  pseudomembranous colitis: 1%
